Series [1] has as its target T1, CYP2B6 (Homo sapiens, UniProt P20813).
T1 construct: tissue Corning Life Sciences 452161; host or cells: pooled human liver microsomes
T1 sequence (P20813 1-491): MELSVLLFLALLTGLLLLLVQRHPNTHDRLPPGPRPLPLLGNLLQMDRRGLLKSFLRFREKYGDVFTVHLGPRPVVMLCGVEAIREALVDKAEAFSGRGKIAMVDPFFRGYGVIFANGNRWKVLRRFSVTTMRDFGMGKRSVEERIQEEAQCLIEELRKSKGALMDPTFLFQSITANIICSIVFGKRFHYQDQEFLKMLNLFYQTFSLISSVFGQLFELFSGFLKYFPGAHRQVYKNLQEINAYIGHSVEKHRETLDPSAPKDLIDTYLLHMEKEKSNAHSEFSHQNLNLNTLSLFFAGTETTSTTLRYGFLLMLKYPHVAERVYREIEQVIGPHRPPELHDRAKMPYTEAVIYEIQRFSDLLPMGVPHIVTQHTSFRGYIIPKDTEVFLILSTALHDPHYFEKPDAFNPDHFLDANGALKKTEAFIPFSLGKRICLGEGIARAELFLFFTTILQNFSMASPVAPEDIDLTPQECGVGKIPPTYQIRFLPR
As to the kind of experiment: CYP2B6-catalyzed bupropion hydroxylase inhibition in pooled human liver microsomes. Format: in vitro ADME. Conditions: for IC50: CYP2B6 bupropion hydroxylase, 50 µM bupropion. As for the experimental part: The effects of aschantin on CYP2B6-catalyzed bupropion hydroxylase activity were evaluated using LC-MS/MS with pooled human liver microsomes. […] The reaction was initiated by adding bupropion. Hydroxybupropion levels were determined using the LC-MS/MS method described above; the SRM parameters were 256.1 > 238.0 for hydroxybupropion and 287.2 > 187.0 for d9-1′-hydroxybufuralol.

The target in series [2] is T2, UGT2B7 (Homo sapiens, UniProt P16662).
T2 construct: using pooled human liver microsomes incubated with the cocktail of UGT substrates; tissue Corning Life Sciences 452161; host or cells: pooled human liver microsomes
T2 sequence (P16662 24-529): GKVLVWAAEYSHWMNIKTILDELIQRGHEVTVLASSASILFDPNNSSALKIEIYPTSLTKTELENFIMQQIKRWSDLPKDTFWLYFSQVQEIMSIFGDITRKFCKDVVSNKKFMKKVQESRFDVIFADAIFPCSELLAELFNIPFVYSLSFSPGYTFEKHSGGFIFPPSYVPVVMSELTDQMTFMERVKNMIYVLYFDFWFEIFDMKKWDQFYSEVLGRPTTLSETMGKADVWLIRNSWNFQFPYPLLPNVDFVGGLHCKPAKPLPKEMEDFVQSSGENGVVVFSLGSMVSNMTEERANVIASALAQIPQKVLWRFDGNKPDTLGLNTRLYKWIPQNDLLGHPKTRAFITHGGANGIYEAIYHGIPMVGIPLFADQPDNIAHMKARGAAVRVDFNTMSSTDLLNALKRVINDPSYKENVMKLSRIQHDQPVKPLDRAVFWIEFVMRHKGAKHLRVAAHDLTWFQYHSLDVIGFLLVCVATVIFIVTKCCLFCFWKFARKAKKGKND
Put plainly: UGT2B7-catalyzed naloxone 3-β-D-glucuronidation inhibition in pooled human liver microsomes. It is filed as in vitro ADME. The protocol: The extents of aschantin on UGT1A1, UGT1A3, UGT1A4, UGT1A6, UGT1A9, and UGT2B7 were evaluated by LC-MS/MS, using pooled human liver microsomes incubated with the cocktail of UGT substrates. The method was modified from that of Joo et al..
The metabolites formed from the six UGT cocktail substrates were simultaneously measured using the LC-MS/MS method. […] The mass spectrometer was equipped with an ESI source and was operated in both positive and negative ion modes. […] Each metabolite was quantified via SRM in the negative ion (chenodeoxycholic acid 24-acyl-β-glucuronide, 567.2 > 391.0; mycophenolic acid glucuronide, 495.2 > 318.9; propofol glucuronide, 353.3 > 177.1) and positive ion (SN-38 glucuronide, 569.0 > 393.0; trifluoperazine glucuronide, 584.2 > 408.1; N-acetylserotonin-β-D-glucuronide, 395.2 > 219.0; naloxone 3-β-D-glucuronide, 504.0 > 310.0; meloxicam, 352.0 > 115.1) modes.

In series [3] the target is T3, CYP1A2 (Homo sapiens, UniProt P05177).
T3 sequence (P05177 1-516): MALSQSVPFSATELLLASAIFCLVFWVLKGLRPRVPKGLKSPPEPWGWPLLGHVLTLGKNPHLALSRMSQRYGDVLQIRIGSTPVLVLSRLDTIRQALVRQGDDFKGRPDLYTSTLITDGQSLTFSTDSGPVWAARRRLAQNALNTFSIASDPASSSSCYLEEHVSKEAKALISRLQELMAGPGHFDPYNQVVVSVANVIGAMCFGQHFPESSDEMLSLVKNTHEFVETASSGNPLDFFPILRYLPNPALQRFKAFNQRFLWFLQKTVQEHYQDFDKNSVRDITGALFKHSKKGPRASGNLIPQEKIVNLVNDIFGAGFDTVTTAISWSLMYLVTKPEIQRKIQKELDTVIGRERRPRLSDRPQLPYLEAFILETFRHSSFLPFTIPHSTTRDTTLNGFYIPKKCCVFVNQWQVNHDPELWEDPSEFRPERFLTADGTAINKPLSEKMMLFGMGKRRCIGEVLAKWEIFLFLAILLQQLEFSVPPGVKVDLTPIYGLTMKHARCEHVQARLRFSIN
As to the kind of experiment: CYP1A2-catalyzed phenacetin O-de-ethylase inhibition in pooled human liver microsomes.

[4] abbreviates: aschantin at 100 µM, human liver microsomes.

SMILES strings stand for the structures. Read-outs that look alike come from different tables or passages of the source. Where only a bound is given, the exact number is not on record here.

For the compound `COc1cc([C@H]2OC[C@H]3[C@@H]2CO[C@@H]3c2ccc3c(c2)OCO3)cc(OC)c1OC` [Aschantin], the half-inhibitory concentration (IC50) in series [1] (30 min pre-incubation with microsomes and NADPH, read-out: IC50 With Pre-incubation) is 87.9 µM; in series [1] (pooled human liver microsomes, no pre-incubation, read-out: IC50 No Pre-incubation), more than 100 µM; in series [2] (UGT2B7-catalyzed naloxone 3-β-D-glucuronidation, 1 µM naloxone, pooled human liver microsomes), more than 200 µM; in series [3], more than 100 µM; in series [3] (read-out: IC50 With Pre-incubation, CYP1A2 phenacetin O-de-ethylase, 50 µM phenacetin, 30 min pre-incubation with microsomes and NADPH), more than 100 µM. For the same compound, the “inhibition of CYP2B6-mediated bupropion hydroxylation” value in series [1] (setting [4]) is “negligibly inhibited”. The “inhibition of UGT2B7-catalyzed naloxone 3-β-D-glucuronidation” value in series [2] (aschantin at 200 µM, human liver microsomes) was “not inhibited”. Moreover, the “inhibition of CYP1A2-mediated phenacetin O-de-ethylation” value in series [3] (setting [4]) is on record as “negligibly inhibited”.
